Measurements taken from ChEMBL document CHEMBL5137008, “Recent advances of antitumor shikonin/alkannin derivatives: A comprehensive overview focusing on structural classification, synthetic approaches, and mechanisms of action” (Eur J Med Chem, 2022).
In brackets after ≈: the same amount, converted by molar mass.

Key:
[1] = test system: L1210; assay: Anticancer activity against mouse L1210 cells; type: functional; details: read-out: ED50 (the source's name)
[2] = test system: A549; assay: Anticancer activity against human A549 cells; type: functional; details: read-out: ED50 (the source's name)
[3] = test system: Sarcoma-180; assay: Antitumor activity against mouse Sarcoma-180 cells xenografted in ip dosed ICR mouse assessed as tumor growth inhibition rate administered daily for 7 days relative to control; type: functional; details: time 7 day
[4] = test system: MCF7; assay: Antiproliferative activity against human MCF7 cells assessed as inhibition of cell proliferation incubated for 20 hrs by MTT assay; type: functional, cell-based; details: MCF7, 20 h
[5] = Antiproliferative activity against human BGC cells assessed as inhibition of cell proliferation incubated for 20 hrs by MTT assay; type: functional, cell-based
[6] = test system: HepG2; assay: Antiproliferative activity against human HepG2 cells assessed as inhibition of cell proliferation incubated for 20 hrs by MTT assay; type: functional, cell-based; details: HepG2, 20 h
[7] = test system: A549; assay: Antiproliferative activity against human A549 cells assessed as inhibition of cell proliferation incubated for 20 hrs by MTT assay; type: functional, cell-based; details: A549, 20 h
[8] = test system: L02; assay: Antiproliferative activity against human L02 cells assessed as inhibition of cell proliferation incubated for 20 hrs by MTT assay; type: functional, cell-based; details: L02, 20 h
[9] = test system: HeLa; assay: Antiproliferative activity against human HeLa cells assessed as inhibition of cell proliferation incubated for 20 hrs by MTT assay; type: functional, cell-based
[10] = Cytotoxicity against African green monkey Vero cells incubated for 24 hrs by MTT assay; type: toxicity, cell-based, Chlorocebus sabaeus
[11] = Cytotoxicity against human MCF-10A incubated for 24 hrs by MTT assay; type: toxicity, cell-based; details: MCF-10A cells
[12] = test system: MCF7; assay: Antiproliferative activity against human MCF7 cells incubated for 24 hrs by MTT assay; type: functional, cell-based; details: MCF7, 24 h
[13] = test system: MG-63; assay: Antiproliferative activity against human MG-63 cells incubated for 24 hrs by MTT assay; type: functional, cell-based; details: MG-63, 24 h
[14] = Antitubulin activity against bovine brain tubulin polymerization preincubated with compound followed by GTP addition by turbidimetry-based spectrophotometric method; design: species or system Bos taurus
[15] = Cytotoxicity against human L02 incubated for 24 hrs by MTT assay; type: toxicity, cell-based; details: L02 cells
[16] = test system: B16-F10; assay: Antiproliferative activity against mouse B16-F10 cells incubated for 24 hrs by MTT assay; type: functional, cell-based; details: B16-F10, 24 h
[17] = test system: HepG2; assay: Antiproliferative activity against human HepG2 cells incubated for 24 hrs by MTT assay; type: functional, cell-based; details: HepG2, 24 h
[18] = test system: MDA-MB-231; assay: Antiproliferative activity against human MDA-MB-231 cells incubated for 24 hrs by MTT assay; type: functional, cell-based; details: MDA-MB-231, 24 h
[19] = Cytotoxicity against human skin fibroblast cells incubated for 24 hrs by MTT assay; type: toxicity, cell-based
[20] = test system: K562; assay: Anticancer activity against human K562 cells assessed as reduction in cell viability for 72 hrs by MTT assay; type: functional, cell-based; details: K562, 72 h
[21] = Cytotoxicity against human skin fibroblast cells assessed as reduction in cell viability incubated for 72 hrs by MTT assay; type: toxicity, cell-based
[22] = test system: HCT-15; assay: Anticancer activity against human HCT-15 cells assessed as reduction in cell viability for 72 hrs by MTT assay; type: functional, cell-based; details: HCT-15, 72 h
[23] = test system: MCF7; assay: Anticancer activity against human MCF7 cells assessed as reduction in cell viability for 72 hrs by MTT assay; type: functional, cell-based; details: MCF7, 72 h
[24] = test system: A549; assay: Antiproliferative activity against human A549 cells assessed as inhibition of cell growth incubated for 24 hrs in presence of foetal bovine serum by MTT assay; type: functional, cell-based; details: A549, 24 h
[25] = test system: MCF7; assay: Antiproliferative activity against human MCF7 cells assessed as inhibition of cell growth incubated for 24 hrs in presence of foetal bovine serum by MTT assay; type: functional, cell-based; details: MCF7, 24 h
[26] = test system: HepG2; assay: Anticancer activity against human HepG2 cells assessed as inhibition of cell growth incubated for 24 hrs by MTT assay; type: functional, cell-based; details: HepG2, 24 h
[27] = Anticancer activity against human A875 cells assessed as inhibition of cell growth incubated for 24 hrs by MTT assay; type: functional, cell-based; details: A875, 24 h
[28] = Cytotoxicity against human L02 cells assessed as inhibition of cell growth incubated for 24 hrs in presence of foetal bovine serum by MTT assay; type: toxicity, cell-based
[29] = Cytotoxicity against human HEK293T cells assessed as inhibition of cell growth incubated for 24 hrs in presence of foetal bovine serum by MTT assay; type: toxicity, cell-based, HEK-293T
[30] = test system: HeLa; assay: cells; details: Homo sapiens, 24 h
[31] = Antitumor activity against human WM9 cells assessed as reduction in cell viability incubated for 72 hrs by XTT assay; type: functional, cell-based; details: WM9, 72 h
[32] = test system: MUGMel2; assay: Antitumor activity against human MUG-Mel2 cells assessed as reduction in cell viability incubated for 72 hrs by XTT assay; type: functional, cell-based; details: MUGMel2, 72 h
[33] = test system: WM164; assay: Antitumor activity against human WM164 cells assessed as reduction in cell viability incubated for 72 hrs by XTT assay; type: functional, cell-based; details: WM164, 72 h
[34] = test system: SBcl2; assay: Antitumor activity against human SBcl2 cells assessed as reduction in cell viability incubated for 72 hrs by XTT assay; type: functional, cell-based; details: SBcl2, 72 h
[35] = Cytotoxicity against human L02 cells incubated for 48 hrs by MTT assay; type: toxicity, cell-based
[36] = test system: SGC-7901; assay: Anticancer activity against human SGC-7901 cells incubated for 48 hrs by MTT assay; type: functional, cell-based; details: SGC-7901, 48 h
[37] = test system: HeLa; assay: Antiproliferative activity against human HeLa cells assessed as inhibition of cell growth incubated for 24 hrs by MTT assay; type: functional, cell-based
[38] = test system: MDA-MB-231; assay: Antiproliferative activity against human MDA-MB-231 cells assessed as inhibition of cell growth incubated for 24 hrs by MTT assay; type: functional, cell-based; details: MDA-MB-231, 24 h
[39] = test system: MGC-803; assay: Anticancer activity against human MGC-803 cells incubated for 48 hrs by MTT assay; type: functional, cell-based; details: MGC-803, 48 h
[40] = test system: SMMC-7721; assay: Anticancer activity against human SMMC-7721 cells incubated for 48 hrs by MTT assay; type: functional, cell-based; details: SMMC-7721, 48 h
[41] = test system: A549; assay: Antiproliferative activity against human A549 cells assessed as inhibition of cell growth incubated for 24 hrs by MTT assay; type: functional, cell-based; details: A549, 24 h
[42] = test system: U-87 MG; assay: Anticancer activity against human U87 cells incubated for 48 hrs by MTT assay; type: functional, cell-based, U-87MG ATCC
[43] = test system: Fibroblast; assay: Cytotoxicity against human skin fibroblast cells incubated for 72 hrs by MTT assay; type: functional, cell-based
[44] = test system: MGC-803; assay: Anticancer activity against human MGC-803 cells incubated for 72 hrs by MTT assay; type: functional, cell-based; details: MGC-803, 72 h
[45] = test system: HCT-15; assay: Anticancer activity against human HCT-15 cells incubated for 72 hrs by MTT assay; type: functional, cell-based; details: HCT-15, 72 h
[46] = test system: MCF7; assay: Anticancer activity against human MCF7 cells incubated for 72 hrs by MTT assay; type: functional, cell-based; details: MCF7, 72 h
[47] = test system: Ca9-22; assay: Cytotoxicity against human Ca9-22 cells assessed as reduction in cell viability incubated for 48 hrs by MTT assay; type: functional, cell-based; details: Ca9-22, 48 h
[48] = test system: Ca9-22; assay: Cytotoxicity against human Ca9-22 cells assessed as reduction in cell viability incubated for 24 hrs by MTT assay; type: functional, cell-based; details: Ca9-22, 24 h

## CCCO/N=C/c1cc(O)c2c(c1O)C(=O)C=CC2=O
[1]
  EC50: 0.107 µg/mL (≈ 0.389 µM)
[2]
  EC50: > 10 µg/mL
[3]
  T/C: 229%

## CC(C)=CC[C@@H](OC(=O)[C@@H](C)N1C(=O)c2ccccc2C1=O)C1=CC(=O)c2c(O)ccc(O)c2C1=O
[4]
  IC50: 2.55 µM
[5]
  IC50: 13.3 µM
[6]
  IC50: 5.35 µM
[7]
  IC50: > 100 µM
[8]
  IC50: > 100 µM
[9]
  IC50: 1.93 µM

## CC(=O)O[C@@H]1[C@@H](OC(C)=O)[C@H](Sc2cc(O)c3c(c2O)C(=O)C=C([C@@H](CC=C(C)C)SC2OC[C@@H](OC(C)=O)[C@H](OC(C)=O)[C@H]2OC(C)=O)C3=O)OC[C@H]1OC(C)=O (stereo partly specified)
[10]
  IC50 at 24 h: 82.5 µM
[11]
  IC50 at 24 h: 78.1 µM
[12]
  IC50: 2.37 µM
[13]
  IC50: 1.22 µM
[14]
  IC50: 4.67 µM
[15]
  IC50 at 24 h: 132 µM
[16]
  IC50: 4.53 µM
[17]
  IC50: 1.22 µM
[18]
  IC50: 10.6 µM

## CO/N=C/c1cc(O)c2c(c1O)C(=O)C=CC2=O
[1]
  EC50: 0.109 µg/mL (≈ 0.441 µM)
[2]
  EC50: > 10 µg/mL
[3]
  T/C: 318%

## CC(C)=CC[C@H](O)C1=CC(=O)c2c(O)ccc(O)c2C1=O [ALKANNIN]
[19]
  IC50 at 24 h: 1.8 µM
[20]
  IC50: 1.5 µM
[21]
  IC50 at 72 h: 1.5 µM
[22]
  IC50: 1.11 µM
[23]
  IC50: 2.62 µM

## COc1cc2c(c(OC)c1OC)-c1ccc(OC)c(=O)cc1[C@@H](NC(C)=O)CC2 [COLCHICINE]
[24]
  IC50: 0.47 µM
[25]
  IC50: 0.22 µM
[26]
  IC50: 4.65 µM
[27]
  IC50: 0.75 µM
[28]
  IC50 at 24 h: 2.3 µM
[29]
  IC50 at 24 h: 1.03 µM
[30]
  IC50: 17.8 µM

## CC(C)=CC[C@@H](OC(=O)C=C(C)C)C1=CC(=O)c2c(O)ccc(O)c2C1=O [DIMETHYLACRYLSHIKONIN]
[31]
  IC50: 2.7 µM
[32]
  IC50: 7.2 µM
[33]
  IC50: 8.3 µM
[34]
  IC50: 1.1 µM

## COc1cccc2c1C(=O)c1c(O)c3c(c(O)c1C2=O)C[C@@](O)(C(=O)CO)C[C@@H]3O[C@H]1C[C@H](N)[C@H](O)[C@H](C)O1 [DOXORUBICIN]
[35]
  IC50 at 48 h: > 100 µM
[36]
  IC50: 0.72 µM
[37]
  IC50: 4.61 µM
[38]
  IC50: 4.21 µM
[39]
  IC50: 0.48 µM
[40]
  IC50: 0.46 µM
[41]
  IC50: 5.13 µM
[42]
  IC50: 0.57 µM

## O=c1[nH]cc(F)c(=O)[nH]1 [FLUOROURACIL]
[43]
  IC50: > 50 µM
[44]
  IC50: > 50 µM
[45]
  IC50: 8.24 µM
[46]
  IC50: 29.5 µM

## CC(C)=CC[C@@H](OC(=O)C(C)C)C1=CC(=O)c2c(O)ccc(O)c2C1=O [ISOBUTYLSHIKONIN]
[47]
  IC50: 1.8 µM
[48]
  IC50: 1.98 µM
